Experimental data taken from patent US20230151432A1, “KIF18A INHIBITORS FOR TREATMENT OF NEOPLASTIC DISEASES” (AMGEN INC., priority 2020, published 2023).

Legend:
[1] = Tolerability (body weight, blood counts) in tumor-bearing nude mice; type: in vivo, mouse; conditions: 18 days
Procedure: (§1) Female athymic nude mice were injected with 5×10^6 cells in 0.1 mL subcutaneously in the right flank. After tumors were established (average tumor volume of 150 mm^3), animals were randomized into 4 treatment groups (vehicle alone, KIF18A inhibitor at 10, 30, or 100 mg/kg) with 10 animals per group and treated orally once per day (PO, QD) starting on day 25 post-tumor implantation. Tumor measurement was calculated from the length, width and height of tumors measured with a PRO-MAX electronic digital caliper (Japan Micrometer Mfg. Co. LTD). The tumor volume was calculated as [L×W×H] and expressed in mm^3. Tumor volume and animal body weight measurements were determined twice per week (study start day 25, study end day 45). A single mouse was removed from the study (KIF18A inhibitor 30 mg/kg group) due to abdominal distention, a finding likely unrelated to compound.
(§2) Data was plotted using GraphPad Prism software (V7.0.4), tumor volume and body weight data are expressed as means plus or minus standard error of the mean and plotted as a function of time. Statistical significance of observed differences between growth curves were calculated using SLACR package (v.1.0.3). Statistical significance for tumor regressions were performed by paired Student's t-Test on the initial and final tumor volumes with significant tumor regression p-values (***p≤0.0001) for all three KIF18A inhibitor treatment groups. KIF18A inhibitor dose 10 mg/kg (81% regression, 5 of 10 tumor-free), 30 mg/kg (98% regression, 8 of 9 tumor-free), and 100 mg/kg (97% regression, 7 of 10 tumor-free).
Female athymic nude mice were injected with 5×10^6 OVCAR-8 cells in 0.1 mL subcutaneously in the right flank. […] Tumor volume and animal body weight measurements were determined twice per week (study start day 25, study end day 47). Tumor measurements, formulas, and regression analysis as described above for FIGS. 5A-5B. Data was plotted using GraphPad Prism software (V7.0.4), tumor volume and body weight data are expressed as means plus or minus standard error of the mean and plotted as a function of time. Statistical significance of observed differences between growth curves were calculated using SLACR package (v.1.0.3).
Data was graphed using GraphPad Prism 7.05.
Tumor volume and body weight assessment performed as described above. After the final dose on day 36, plasma pharmacokinetic analysis was performed as described above. All data analysis was performed as described above.
Animals were dosed IP daily with vehicle alone, C9 (50 or 100 mg/kg), or C12 (25 or 50 mg/kg). […] Tumor volume and body weight assessment performed as described above. After the final dose on day 46, plasma pharmacokinetic analysis was performed as described above except blood was drawn by retro-orbital bleed method.

[2] = tested on: human ovarian cancer cell lines; experiment: 4-day or 6-day cancer cell line growth assay screens (CellTiter-Glo, NCA); type: cell-based; conditions: nine TP53 wild-type ovarian cancer cell lines
Procedure: (§3) An analysis was carried out to identify cancer cell lines sensitivity profile to the KIF18A inhibitor Compound C9. In this analysis, a panel of different human breast and ovarian cancer cell lines (Table 2 of FIG. 4A and Table 3 of FIG. 4B), were used in either a 4-day or 6-day cancer cell line growth assay screen.
(§4) In the 4-day growth assay screen, cancer cell lines were treated in 96-well tissue culture plates at pre-optimized seeding density. Growth media conditions were determined by ChemPartners (Shanghai, China). After 24 hours, cells were treated with KIF18A inhibitor (Compound C9; final 10-point concentration range 2.0 μM to 0.0001 μM, 3-fold dilution) in a 4-day cell growth assay based on quantitation of ATP as an indicator of viable cells using CellTiter-GLO 2.0 readout (CTG, Promega). CTG assay was performed in duplicate for each cell line. Detection was performed using luminescence plate reader and expressed as relative luminescence units (RLU) based on POC (percentage of DMSO control). Raw data was provided to Amgen for curve-fitting analysis with 4-parameter equation (variable slope) using GraphPad Prism software (V7.0.4). […]
(§5) An expanded screen was performed using 6-day growth assay, cancer cell lines were treated in black 384-well tissue culture plates at 500-1500 cells per well. Growth media conditions were determined by Horizon Discovery (Cambridge, United Kingdom). After 24 hours, cells were treated with KIF18A inhibitor (Compound C9; final 11-point concentration range 2.0 μM to 0.0000339 μM, 3-fold dilution) in a 6-day cell growth assay based on quantitation of ATP as an indicator of viable cells using CellTiter-GLO 2.0 readout (Promega). Luminescence was detected using Envision plate reader (Perkin Elmer) and expressed as relative luminescence units (RLU) based on POC (percentage of control). […]
(§6) In Tables 2 and 3, “?” means that there were differences in sensitivity calls between the first screen and the second screen, and “ND” means not determined. […]

[3] = tested on: human breast cancer cell lines; experiment: as above; type: cell-based
Procedure: as §3, §4, §5, §6

[4] = tested on: human OVCAR-3 HGSOC xenograft model (TP53MUT, CCNE1AMP); experiment: OVCAR-3 xenograft efficacy study, oral dosing (Example 3); type: in vivo, mouse; conditions: for tumor regression: day 25 to day 45
Procedure: as §1
Tumor Growth Inhibition (TGI) and Tumor Regression formulas.
as §2

[5] = OVCAR-3 study, C9 100 mg/kg, C12 25 mg/kg IP daily

SMILES: CC(C)(C)NS(=O)(=O)c1cccc(NC(=O)c2ccc(S(=O)(=O)NC(C)(C)C)cc2N2CCC3(CC2)CC3)c1 [Compound C9, 4-(N-(tert-butyl)sulfamoyl)-N-(3-(N-(tert-butyl)sulfamoyl)phenyl)-2-(6-azaspiro[2.5]octan-6-yl)benzamide]
- tolerability (body weight) ([1]; CAL-51 study, C9 100 mg/kg, C12 25 mg/kg IP daily): well-tolerated
- body weight loss or changes in blood counts [1, 5]: no evidence of body weight loss or changes in blood counts
- tolerability [1, 5]: well-tolerated
- tolerability (body weight) ([1]; OVCAR-8 study, C9 50 or 100 mg/kg, C12 25 or 50 mg/kg IP daily): well-tolerated
- sensitivity to KIF18A inhibitor [2]: None of the nine TP53 wild-type ovarian cancer cell lines were sensitive
- sensitivity to KIF18A inhibitor ([3]; luminal A or luminal B breast cancer cell lines): None of the luminal A or luminal B breast cancer cell lines were sensitive
- sensitivity to KIF18A inhibitor ([3]; nine TP53 wild-type breast cancer cell lines incl. CAL-51, DU4475): None of the nine TP53 wild-type breast cancer cell lines were sensitive

SMILES: Cc1cc(NC(=O)c2ccc(NS(=O)(=O)CCO)cc2N2CCC3(CC2)CC3)nc(N2CCC(F)(F)CC2)n1 [Compound C14, N-(2-(4,4-Difluoropiperidin-1-yl)-6-methylpyrimidin-4-yl)-4-((2-hydroxyethyl)sulfonamido)-2-(6-azaspiro[2.5]octan-6-yl)benzamide]
- tumor-free animals ([4]; 10 mg/kg PO QD): 5 of 10
- tumor regression ([4]; 10 mg/kg PO QD): 81%
- tumor-free animals ([4]; 30 mg/kg PO QD): 8 of 9
- tumor regression ([4]; 30 mg/kg PO QD): 98%
- tumor-free animals ([4]; 100 mg/kg PO QD): 7 of 10
- tumor regression ([4]; 100 mg/kg PO QD): 97%
- durable tumor regressions and cures, share of the animals ([4]; tumor re-growth assessment after cessation of treatment): ≥ 50%
